From ChEMBL document CHEMBL1275261, “Nationwide investigation of extended-spectrum beta-lactamases, metallo-beta-lactamases, and extended-spectrum oxacillinases produced by ceftazidime-resistant Pseudomonas aeruginosa strains in France” (2010)
Converted amounts (≈) assume the structure as drawn.

How the values were obtained:
Format in all cases: functional
[1] = test system: Pseudomonas aeruginosa; assay: Antibacterial activity against OXA-30, PSE-1, VIM-2 and PER-1 producing Pseudomonas aeruginosa isolate P19 exhibiting PFGE F pattern by 2-fold agar dilution method
[2] = test system: Pseudomonas aeruginosa; assay: Antibacterial activity against IMP-18 producing Pseudomonas aeruginosa isolate P85 exhibiting PFGE K pattern by 2-fold agar dilution method
[3] = test system: Pseudomonas aeruginosa; assay: Antibacterial activity against VEB-1a and OXA-10 producing Pseudomonas aeruginosa isolate P151 exhibiting PFGE I pattern by 2-fold agar dilution method
[4] = test system: Pseudomonas aeruginosa; assay: Antibacterial activity against SHV-2a producing Pseudomonas aeruginosa isolate P60 exhibiting PFGE H pattern by 2-fold agar dilution method
[5] = test system: Pseudomonas aeruginosa; assay: Antibacterial activity against OXA-28 producing Pseudomonas aeruginosa isolate P174 exhibiting PFGE E pattern by 2-fold agar dilution method
[6] = test system: Pseudomonas aeruginosa; assay: Antibacterial activity against OXA-19 producing Pseudomonas aeruginosa isolate P9 exhibiting PFGE A pattern by 2-fold agar dilution method
[7] = test system: Pseudomonas aeruginosa; assay: Antibacterial activity against SHV-2a producing Pseudomonas aeruginosa isolate P102 exhibiting PFGE H pattern by 2-fold agar dilution method
[8] = test system: Pseudomonas aeruginosa; assay: Antibacterial activity against OXA-10, PSE-1, VIM-2 and PER-1 producing Pseudomonas aeruginosa isolate P22 exhibiting PFGE F pattern by 2-fold agar dilution method
[9] = test system: Pseudomonas aeruginosa; assay: Antibacterial activity against OXA-2 and OXA-19 producing Pseudomonas aeruginosa isolate P66 exhibiting PFGE C pattern by 2-fold agar dilution method
[10] = test system: Pseudomonas aeruginosa; assay: Antibacterial activity against PER-1 producing Pseudomonas aeruginosa isolate P170 exhibiting PFGE G pattern by 2-fold agar dilution method
[11] = test system: Pseudomonas aeruginosa; assay: Antibacterial activity against VIM-2 producing Pseudomonas aeruginosa isolate P67 exhibiting PFGE J pattern by 2-fold agar dilution method
[12] = test system: Pseudomonas aeruginosa; assay: Antibacterial activity against OXA-19 producing Pseudomonas aeruginosa isolate P122 exhibiting PFGE A pattern by 2-fold agar dilution method
[13] = test system: Pseudomonas aeruginosa; assay: Antibacterial activity against OXA-19 producing Pseudomonas aeruginosa isolate P11 exhibiting PFGE A pattern by 2-fold agar dilution method
[14] = test system: Pseudomonas aeruginosa; assay: Antibacterial activity against OXA-30, PSE-1, VIM-2 and PER-1 producing Pseudomonas aeruginosa isolate P19 exhibiting PFGE F pattern by 2-fold agar dilution method in presence of 4 ug/ml Tazobactam
[15] = test system: Pseudomonas aeruginosa; assay: Antibacterial activity against VEB-1a and OXA-10 producing Pseudomonas aeruginosa isolate P151 exhibiting PFGE I pattern by 2-fold agar dilution method in presence of 4 ug/ml Tazobactam
[16] = test system: Pseudomonas aeruginosa; assay: Antibacterial activity against OXA-2 and OXA-19 producing Pseudomonas aeruginosa isolate P66 exhibiting PFGE C pattern by 2-fold agar dilution method in presence of 4 ug/ml Tazobactam
[17] = test system: Pseudomonas aeruginosa; assay: Antibacterial activity against PER-1 producing Pseudomonas aeruginosa isolate P170 exhibiting PFGE G pattern by 2-fold agar dilution method in presence of 4 ug/ml Tazobactam
[18] = test system: Pseudomonas aeruginosa; assay: Antibacterial activity against OXA-19 producing Pseudomonas aeruginosa isolate P122 exhibiting PFGE A pattern by 2-fold agar dilution method in presence of 4 ug/ml Tazobactam
[19] = test system: Pseudomonas aeruginosa; assay: Antibacterial activity against OXA-19 producing Pseudomonas aeruginosa isolate P11 exhibiting PFGE A pattern by 2-fold agar dilution method in presence of 4 ug/ml Tazobactam
[20] = test system: Pseudomonas aeruginosa; assay: Antibacterial activity against OXA-10, PSE-1, VIM-2 and PER-1 producing Pseudomonas aeruginosa isolate P22 exhibiting PFGE F pattern by 2-fold agar dilution method in presence of 4 ug/ml Tazobactam
[21] = test system: Pseudomonas aeruginosa; assay: Antibacterial activity against VIM-2 producing Pseudomonas aeruginosa isolate P67 exhibiting PFGE J pattern by 2-fold agar dilution method in presence of 4 ug/ml Tazobactam
[22] = test system: Pseudomonas aeruginosa; assay: Antibacterial activity against OXA-28 producing Pseudomonas aeruginosa isolate P174 exhibiting PFGE E pattern by 2-fold agar dilution method in presence of 4 ug/ml Tazobactam
[23] = test system: Pseudomonas aeruginosa; assay: Antibacterial activity against IMP-18 producing Pseudomonas aeruginosa isolate P85 exhibiting PFGE K pattern by 2-fold agar dilution method in presence of 4 ug/ml Tazobactam
[24] = test system: Pseudomonas aeruginosa; assay: Antibacterial activity against OXA-19 producing Pseudomonas aeruginosa isolate P9 exhibiting PFGE A pattern by 2-fold agar dilution method in presence of 4 ug/ml Tazobactam
[25] = test system: Pseudomonas aeruginosa; assay: Antibacterial activity against SHV-2a producing Pseudomonas aeruginosa isolate P60 exhibiting PFGE H pattern by 2-fold agar dilution method in presence of 4 ug/ml Tazobactam
[26] = test system: Pseudomonas aeruginosa; assay: Antibacterial activity against SHV-2a producing Pseudomonas aeruginosa isolate P102 exhibiting PFGE H pattern by 2-fold agar dilution method in presence of 4 ug/ml Tazobactam

Row | Structure (SMILES) | MIC [1] | MIC [2] | MIC [3] | MIC [4] | MIC [5] | MIC [6] | MIC [7] | MIC [8] | MIC [9] | MIC [10] | MIC [11] | MIC [12] | MIC [13] | other results
1 | C[C@H]1[C@H](NC(=O)/C(=N\OC(C)(C)C(=O)O)c2csc(N)n2)C(=O)N1S(=O)(=O)O [AZTREONAM] | 128 µg/mL (≈ 294 µM) | 16 µg/mL (≈ 36.7 µM) | > 512 µg/mL | 32 µg/mL (≈ 73.5 µM) | 32 µg/mL (≈ 73.5 µM) | 16 µg/mL (≈ 36.7 µM) | 32 µg/mL (≈ 73.5 µM) | 256 µg/mL (≈ 588 µM) | 16 µg/mL (≈ 36.7 µM) | 128 µg/mL (≈ 294 µM) | 32 µg/mL (≈ 73.5 µM) | – | – | –
2 | C[C@@H](O)[C@H]1C(=O)N2C(C(=O)O)=C(SCCNC=N)C[C@H]12 [IMIPENEM ANHYDROUS] | 128 µg/mL (≈ 428 µM) | 64 µg/mL (≈ 214 µM) | 32 µg/mL (≈ 107 µM) | 1 µg/mL (≈ 3.34 µM) | 4 µg/mL (≈ 13.4 µM) | 16 µg/mL (≈ 53.4 µM) | 16 µg/mL (≈ 53.4 µM) | 128 µg/mL (≈ 428 µM) | 1 µg/mL (≈ 3.34 µM) | 4 µg/mL (≈ 13.4 µM) | 512 µg/mL (≈ 1710 µM) | 8 µg/mL (≈ 26.7 µM) | 8 µg/mL (≈ 26.7 µM) | –
3 | CO/N=C(\C(=O)N[C@@H]1C(=O)N2C(C(=O)[O-])=C(C[N+]3(C)CCCC3)CS[C@H]12)c1csc(N)n1 | 128 µg/mL (≈ 266 µM) | 256 µg/mL (≈ 533 µM) | > 512 µg/mL | 64 µg/mL (≈ 133 µM) | 32 µg/mL (≈ 66.6 µM) | 64 µg/mL (≈ 133 µM) | 64 µg/mL (≈ 133 µM) | 128 µg/mL (≈ 266 µM) | 16 µg/mL (≈ 33.3 µM) | 64 µg/mL (≈ 133 µM) | 64 µg/mL (≈ 133 µM) | – | – | –
4 | NCC[C@H](O)C(=O)N[C@@H]1C[C@H](N)[C@@H](O[C@H]2O[C@H](CN)[C@@H](O)[C@H](O)[C@H]2O)[C@H](O)[C@H]1O[C@H]1O[C@H](CO)[C@@H](O)[C@H](N)[C@H]1O [AMIKACIN] | 64 µg/mL (≈ 109 µM) | > 512 µg/mL | 128 µg/mL (≈ 219 µM) | 32 µg/mL (≈ 54.6 µM) | 16 µg/mL (≈ 27.3 µM) | 16 µg/mL (≈ 27.3 µM) | 128 µg/mL (≈ 219 µM) | 64 µg/mL (≈ 109 µM) | 128 µg/mL (≈ 219 µM) | 32 µg/mL (≈ 54.6 µM) | 32 µg/mL (≈ 54.6 µM) | 8 µg/mL (≈ 13.7 µM) | 8 µg/mL (≈ 13.7 µM) | –
5 | CCN1CCN(C(=O)N[C@@H](C(=O)N[C@@H]2C(=O)N3[C@@H]2SC(C)(C)[C@@H]3C(=O)O)c2ccccc2)C(=O)C1=O [PIPERACILLIN] | – | – | – | – | – | – | – | – | – | – | – | – | – | MIC [14]: 256 µg/mL; MIC [15]: 256 µg/mL; MIC [16]: 32 µg/mL; MIC [17]: 128 µg/mL; MIC [18]: 64 µg/mL; MIC [19]: 64 µg/mL; MIC [20]: 256 µg/mL; MIC [21]: 32 µg/mL; MIC [22]: 128 µg/mL; MIC [23]: 128 µg/mL; MIC [24]: 128 µg/mL; MIC [25]: 128 µg/mL; MIC [26]: 128 µg/mL
6 | O=C(O)c1cn(C2CC2)c2cc(N3CCNCC3)c(F)cc2c1=O [CIPROFLOXACIN] | – | 128 µg/mL (≈ 386 µM) | 512 µg/mL (≈ 1550 µM) | 32 µg/mL (≈ 96.6 µM) | 128 µg/mL (≈ 386 µM) | 64 µg/mL (≈ 193 µM) | 32 µg/mL (≈ 96.6 µM) | – | 128 µg/mL (≈ 386 µM) | 64 µg/mL (≈ 193 µM) | 128 µg/mL (≈ 386 µM) | 64 µg/mL (≈ 193 µM) | 32 µg/mL (≈ 96.6 µM) | –
7 | CC(C)(O/N=C(\C(=O)N[C@@H]1C(=O)N2C(C(=O)[O-])=C(C[n+]3ccccc3)CS[C@H]12)c1csc(N)n1)C(=O)O [CEFTAZIDIME] | 256 µg/mL (≈ 468 µM) | > 512 µg/mL | > 512 µg/mL | 64 µg/mL (≈ 117 µM) | 256 µg/mL (≈ 468 µM) | 256 µg/mL (≈ 468 µM) | 64 µg/mL (≈ 117 µM) | 256 µg/mL (≈ 468 µM) | 64 µg/mL (≈ 117 µM) | 256 µg/mL (≈ 468 µM) | 128 µg/mL (≈ 234 µM) | 256 µg/mL (≈ 468 µM) | 256 µg/mL (≈ 468 µM) | –
8 | CC1(C)S[C@@H]2[C@H](NC(=O)[C@H](C(=O)O)c3ccsc3)C(=O)N2[C@H]1C(=O)O [TICARCILLIN] | > 512 µg/mL | > 512 µg/mL | > 512 µg/mL | > 512 µg/mL | 128 µg/mL (≈ 333 µM) | 512 µg/mL (≈ 1330 µM) | > 512 µg/mL | > 512 µg/mL | 512 µg/mL (≈ 1330 µM) | 512 µg/mL (≈ 1330 µM) | > 512 µg/mL | 256 µg/mL (≈ 666 µM) | 256 µg/mL (≈ 666 µM) | –
